Reference: patent US10105357B2, “Indication of antibiotic drugs for preparation of cancer inhibition pharmaceutical composition” (LAUNX BIOMEDICAL CO., LTD., priority 2014, dated 2018)
Counter-ions that a name gives are not always drawn. Like-named read-outs stand apart in the source and are kept apart here.

Key:
cancer cell lines = experiment: Cell viability analysis (WST-1) on cancer cell lines; assay type: cell-based, human; details: drug 10 μM, 72 hours, WST-1; Table 3
[1] = system: HI650 (Lung Adenocarcinoma); experiment: Cell viability analysis, lung cancer HI650; assay type: cell-based, human; details: Homo sapiens, NCI-H1650, 72 h
[2] = system: A549 (Lung Adenocarcinoma); experiment: Cell viability analysis, lung cancer A549; assay type: cell-based, human; details: Homo sapiens, A549, 72 h
[3] = system: AGS (Gastric Adenocarcinoma); experiment: Cell viability analysis, gastric cancer AGS; assay type: cell-based, human; details: Homo sapiens, 72 h
[4] = system: MKN-45 (Gastric Adenocarcinoma); experiment: Cell viability analysis, gastric cancer MKN-45; assay type: cell-based, human; details: Homo sapiens, MKN-45, 72 h
[5] = system: HepG2 (Hepatocellular Carcinoma); experiment: Cell viability analysis, hepatic cancer HepG2; assay type: cell-based, human; details: Homo sapiens, HepG2, 72 h
[6] = system: Hep3B (hepatocellular carcinoma); experiment: Cell viability analysis, hepatic cancer Hep3B; assay type: cell-based, human; details: Homo sapiens, Hep3B, 72 h, read-out: The results of antibiotic drug inhibiting cancer cell lines (cell viability analysis), Hep3B
[7] = system: LoVo (Colorectal Adenocarcinoma); experiment: Cell viability analysis, colon cancer LoVo; assay type: cell-based, human; details: Homo sapiens, LoVo, 72 h
[8] = system: A375 (Amelanotic Melanoma); experiment: Cell viability analysis, skin cancer A375; assay type: cell-based, human; details: Homo sapiens, A-375, 72 h
[9] = system: BCC (basal cell carcinoma); experiment: Cell viability analysis, skin cancer BCC; assay type: cell-based, human; details: Homo sapiens, 72 h, read-out: The results of antibiotic drug inhibiting cancer cell lines (cell viability analysis), BCC
[10] = system: HeLa (Cervix Adenocarcinoma); experiment: Cell viability analysis, cervical cancer HeLa; assay type: cell-based, human; details: Homo sapiens, HeLa, 72 h
[11] = system: C-33A (Cervical carcinoma); experiment: Cell viability analysis, cervical cancer C-33A; assay type: cell-based, human; details: Homo sapiens, C-33-A, 72 h, read-out: The results of antibiotic drug inhibiting cancer cell lines (cell viability analysis), C-33A
[12] = system: PC3 (p53−) (Prostate Adenocarcinoma); experiment: Cell viability analysis, prostate cancer PC3; assay type: cell-based, human; details: Homo sapiens, 72 h
T24 = experiment: Cell viability analysis, bladder cancer T24; assay type: cell-based, human; details: Homo sapiens, T-24, 72 h, read-out: The results of antibiotic drug inhibiting cancer cell lines (cell viability analysis), T24
[13] = system: MCF7 (Mammary Gland, Adenocarcinoma); experiment: Cell viability analysis, breast cancer MCF7; assay type: cell-based, human; details: Homo sapiens, MCF7, 72 h
[14] = system: MDA-MB-231 (Mammary Gland, Adenocarcinoma); experiment: Cell viability analysis, breast cancer MDA-MB-231; assay type: cell-based, human; details: Homo sapiens, MDA-MB-231, 72 h, read-out: The results of antibiotic drug inhibiting cancer cell lines (cell viability analysis), MDA-MB231
BxPC-3 = experiment: Cell viability analysis, pancreatic cancer BxPC-3; assay type: cell-based, human; details: Homo sapiens, BXPC-3, 72 h, read-out: The results of antibiotic drug inhibiting cancer cell lines (cell viability analysis), BxPC-3
AsPC-1 = experiment: Cell viability analysis, pancreatic cancer AsPC-1; assay type: cell-based, human; details: Homo sapiens, ASPC1, 72 h, read-out: The results of antibiotic drug inhibiting cancer cell lines (cell viability analysis), AsPC-1
NIH: OVCAR-3 = experiment: Cell viability analysis, ovarian cancer NIH: OVCAR-3; assay type: cell-based, human; details: Homo sapiens, OVCAR-3, 72 h, read-out: The results of antibiotic drug inhibiting cancer cell lines (cell viability analysis), NIH-OVCAR-3
TOV-21G = experiment: Cell viability analysis, ovarian cancer TOV-21G; assay type: cell-based, human; details: Homo sapiens, TOV21G, 72 h, read-out: The results of antibiotic drug inhibiting cancer cell lines (cell viability analysis), TOV-21G
[15] = system: SAS (Tongue squamous cell carcinoma); experiment: Cell viability analysis, tongue cancer SAS; assay type: cell-based, human; details: Homo sapiens, 72 h, read-out: The results of antibiotic drug inhibiting cancer cell lines (cell viability analysis), SAS
U-2OS = experiment: Cell viability analysis, osteosarcoma U-2OS; assay type: cell-based, human; details: Homo sapiens, U2OS, 72 h, read-out: The results of antibiotic drug inhibiting cancer cell lines (cell viability analysis), U2OS
[16] = system: 786-O (Renal adenocarcinoma); experiment: Cell viability analysis, renal cancer 786-O; assay type: cell-based, human; details: Homo sapiens, 786-0, 72 h, read-out: The results of antibiotic drug inhibiting cancer cell lines (cell viability analysis), 786-O
[17] = system: HL-60 (Acute Promyelocytic Leukemia); experiment: Cell viability analysis, leukemia HL-60; assay type: cell-based, human; details: Homo sapiens, HL-60, 72 h, read-out: cell viability (survival rate), HL-60, drug 10 μM, 72 hours, WST-1, OD450 nm
[18] = system: HCT116 (p53+) (Colorectal Carcinoma)
[19] = read-out: The results of antibiotic drug inhibiting cancer cell lines (cell viability analysis), H1650, H1650, repeated experiment
[20] = read-out: cell viability (survival rate), H1650, drug 10 μM, 72 hours, WST-1, OD450 nm
[21] = read-out: The results of antibiotic drug inhibiting cancer cell lines (cell viability analysis), A549, A549, repeated experiment
[22] = read-out: cell viability (survival rate), A549, drug 10 μM, 72 hours, WST-1, OD450 nm
[23] = read-out: The results of antibiotic drug inhibiting cancer cell lines (cell viability analysis), AGS, repeated experiment
[24] = read-out: cell viability (survival rate), AGS, drug 10 μM, 72 hours, WST-1, OD450 nm
[25] = read-out: The results of antibiotic drug inhibiting cancer cell lines (cell viability analysis), MKN-45, MKN-45, repeated experiment
[26] = read-out: cell viability (survival rate), MKN-45, drug 10 μM, 72 hours, WST-1, OD450 nm
[27] = read-out: The results of antibiotic drug inhibiting cancer cell lines (cell viability analysis), HepG2, HepG2, repeated experiment
[28] = read-out: cell viability (survival rate), HepG2, drug 10 μM, 72 hours, WST-1, OD450 nm
[29] = read-out: The results of antibiotic drug inhibiting cancer cell lines (cell viability analysis), LoVo, repeated experiment
[30] = read-out: cell viability (survival rate), LoVo, drug 10 μM, 72 hours, WST-1, OD450 nm
[31] = read-out: The results of antibiotic drug inhibiting cancer cell lines (cell viability analysis), A375, A375, repeated experiment
[32] = read-out: cell viability (survival rate), A375, drug 10 μM, 72 hours, WST-1, OD450 nm
[33] = read-out: The results of antibiotic drug inhibiting cancer cell lines (cell viability analysis), HeLa, repeated experiment
[34] = read-out: cell viability (survival rate), HeLa, drug 10 μM, 72 hours, WST-1, OD450 nm
[35] = read-out: The results of antibiotic drug inhibiting cancer cell lines (cell viability analysis), PC-3, PC-3, repeated experiment
[36] = read-out: cell viability (survival rate), PC3, drug 10 μM, 72 hours, WST-1, OD450 nm
[37] = read-out: The results of antibiotic drug inhibiting cancer cell lines (cell viability analysis), MCF-7, MCF-7, repeated experiment
[38] = read-out: cell viability (survival rate), MCF7, drug 10 μM, 72 hours, WST-1, OD450 nm

Cc1ncc([N+](=O)[O-])n1CCO [Metronidazole (Flagyl), Metronidazole] was tested, and the “inhibition effect on different cancer cell lines” value (cancer cell lines) was “significant inhibition effect”, the viability at 10 µM [1, 19] was 87.2% and the viability at 10 µM [1, 20] was 94.9%. For the same molecule, the viability at 10 µM [2, 21] was 97.7%, the viability at 10 µM [2, 22] was 36.5% and the viability at 10 µM [3, 23] was 113%. It also gave a viability at 10 µM [3, 24] of 90.5%, a viability at 10 µM [4, 25] of 108% and a viability at 10 µM [4, 26] of 57.7%. The viability at 10 µM [5, 27] was 94.1%, the viability at 10 µM [5, 28] was 105% and the viability at 10 µM [6] was 92.3%. For the same molecule, the viability at 10 µM [7, 29] was 118%, the viability at 10 µM [7, 30] was 61.1% and the viability at 10 µM [8, 31] was 74.7%. The viability at 10 µM [8, 32] was 56.4%, the viability at 10 µM [9] was 68.2% and the viability at 10 µM [10, 33] was 75.3%. For the same molecule, the viability at 10 µM [10, 34] was 90.7%, the viability at 10 µM [11] was 114% and the viability at 10 µM [12, 35] was 95.6%. It also gave a viability at 10 µM [12, 36] of 40.9%, a viability at 10 µM (T24) of 93.8% and a viability at 10 µM [13, 37] of 77.3%. The viability at 10 µM [13, 38] was 43.8%, the viability at 10 µM [14] was 93.3% and the viability at 10 µM (BxPC-3) was 83.6%. It also gave a viability at 10 µM (AsPC-1) of 83.1%, a viability at 10 µM (NIH: OVCAR-3) of 110% and a viability at 10 µM (TOV-21G) of 95.8%. For the same molecule, the viability at 10 µM [15] was 112%, the viability at 10 µM (U-2OS) was 99.6% and the viability at 10 µM [16] was 92%. For the same molecule, the viability at 10 µM [17] was 90.8% and the viability [18] was 98.9%.

For CN(C)[C@@H]1C(O)=C(C(N)=O)C(=O)[C@@]2(O)C(O)=C3C(=O)c4c(O)ccc(Cl)c4[C@@](C)(O)[C@H]3C[C@@H]12 [Chlortetracycline HCl], the “inhibition effect on different cancer cell lines” value (cancer cell lines) was “significant inhibition effect”, the viability at 10 µM [1, 19] was 88.5% and the viability at 10 µM [1, 20] was 59.9%. For the same molecule, the viability at 10 µM [2, 21] was 99.3%, the viability at 10 µM [2, 22] was 45.8% and the viability at 10 µM [3, 23] was 99.9%. It also gave a viability at 10 µM [3, 24] of 69.7%, a viability at 10 µM [4, 25] of 142% and a viability at 10 µM [4, 26] of 43%. For the same molecule, the viability at 10 µM [5, 27] was 113%, the viability at 10 µM [5, 28] was 75% and the viability at 10 µM [6] was 117%. The viability at 10 µM [7, 29] was 74.4%, the viability at 10 µM [7, 30] was 61.4% and the viability at 10 µM [8, 31] was 108%. It also gave a viability at 10 µM [8, 32] of 49.2%, a viability at 10 µM [9] of 97.1% and a viability at 10 µM [10, 33] of 84%. The viability at 10 µM [10, 34] was 83.9%, the viability at 10 µM [11] was 88% and the viability at 10 µM [12, 35] was 108%. For the same molecule, the viability at 10 µM [12, 36] was 38.2%, the viability at 10 µM (T24) was 122% and the viability at 10 µM [13, 37] was 93.4%. For the same molecule, the viability at 10 µM [13, 38] was 32.2%, the viability at 10 µM [14] was 83.2% and the viability at 10 µM (BxPC-3) was 63.7%. It also gave a viability at 10 µM (AsPC-1) of 82.1%, a viability at 10 µM (NIH: OVCAR-3) of 99.3% and a viability at 10 µM (TOV-21G) of 92.2%. The viability at 10 µM [15] was 97.4%, the viability at 10 µM (U-2OS) was 80.3% and the viability at 10 µM [16] was 91.4%. It also gave a viability at 10 µM [17] of 83.9% and a viability [18] of 91.5%.
